Assay results: patent publication US9012200B2, “Composition of bacterial strains, bioremediation mixture and use of this composition for the removal of contaminants from the soil and the method for purifying the soil contaminants” (priority 2012, dated 2015)
Converted amounts (≈) assume the structure as drawn.

Key:
Assay type in all cases: cell-based
[1] = tested on: Stenotrophomonas sp. strain 3N; test: Disc diffusion antibiotic susceptibility; conditions: 24 h
Protocol: (§1) A disc diffusion method was performed to determine the susceptibility of bacteria to the selected antibiotics. We used discs soaked with the antibiotic of a well-defined concentration (BioMerioux) (Table 2) and the minimal inhibitory concentration test was carried out, using E-tests (Oxoid) (Table 3).
(§2) A McFarland's 0.5 inoculum was prepared from each strain's culture, using a densitometer (EMO). Then, using sterile cotton swabs, the suspension of bacterial cells was spread on dishes with ready-to-use MHA medium (Oxoid), and after 15 minutes, discs soaked with antibiotics at defined concentrations were placed on them.
(§3) The dishes were incubated at 25-30° C., and the results were read after 24 and 48 hours. The measure of susceptibility of a tested strain to a given antibiotic was the size of the inhibition zone which formed around the disc soaked with the antibiotic. The results read (sizes of zones measured in mm) were compared with the data contained in the European Committee on Antimicrobial Susceptibility Testing (EUCAST) standards from 2010 (Table 4).
(§4) The measure of susceptibility of the tested bacterial strain to a given antibiotic was the size of the inhibition zone which formed around the disc (Table 5).

[2] = tested on: Pseudomonas sp. strain 4G; test: Disc diffusion antibiotic susceptibility; conditions: 24 h
Protocol: as §1, §2, §3, §4

[3] = tested on: Brevundimonas sp. strain 5N; test: Disc diffusion antibiotic susceptibility; conditions: 24 h
Protocol: as §1, §2, §3, §4

[4] = tested on: Pseudomonas sp. strain 3G; test: Disc diffusion antibiotic susceptibility; conditions: 24 h
Protocol: as §1, §2, §3, §4

[5] = tested on: Stenotrophomonas sp. strain 6L; test: Disc diffusion antibiotic susceptibility; conditions: 24 h
Protocol: as §1, §2, §3, §4

[6] = tested on: Arthrobacter sp. strain 1N; test: Disc diffusion antibiotic susceptibility
Protocol: as §1, §2, §3, §4

[7] = tested on: Brevundimonas sp. strain 6N; test: Disc diffusion antibiotic susceptibility; conditions: 24 h
Protocol: as §1, §2, §3, §4

[8] = tested on: Achromobacter sp. strain 4P; test: Disc diffusion antibiotic susceptibility; conditions: 24 h
Protocol: as §1, §2, §3, §4

[9] = tested on: Stenotrophomonas sp. strain 5L; test: Disc diffusion antibiotic susceptibility
Protocol: as §1, §2, §3, §4

[10] = tested on: Brevundimonas sp. strain 2N; test: Disc diffusion antibiotic susceptibility; conditions: 24 h
Protocol: as §1, §2, §3, §4

[11] = tested on: Stenotrophomonas sp. strain 2L; test: Disc diffusion antibiotic susceptibility
Protocol: as §1, §2, §3, §4

[12] = tested on: Stenotrophomonas sp. strain 3N; test: Antibiotic MIC by E-test; conditions: Stenotrophomonas, 24 h, read-out: MIC threshold values for a given antibiotic
Protocol: as §1
(§5) In the next stage of the research, MIC values of a given antibiotic for the investigated strains were determined, meaning the lowest concentration of the drug, expressed in mg/L, determined in vitro, which inhibits the growth of bacteria at a defined inoculum density, within a given time (Hryniewicz et at, 2001). These studies allow for the closer determination of the degree of susceptibility of bacteria to the applied antibiotics.
(§6) A bacterial suspension was evenly distributed on dishes with ready-to-use MHA medium (Oxoid), and then plastic testing strips (E-tests) soaked with an antibiotic with a concentration gradient were placed thereon. The dishes were incubated at 25-30° C. for 24 h, and the test results were read after this time.
(§7) The intersection of elliptical zone of inhibition, which appeared around the test strip, with the value indicator on the gradient scale of the strip, determined the lowest concentration of antibiotic, inhibiting growth of the microorganism (MIC). Similarly as in the disc diffusion method, the obtained results were compared with the guidelines contained in the relevant standards.

[13] = tested on: Pseudomonas sp. strain 4G; test: Antibiotic MIC by E-test; conditions: Pseudomonas, 24 h, read-out: MIC threshold values for a given antibiotic
Protocol: as §1, §5, §6, §7

[14] = tested on: Brevundimonas sp. strain 5N; test: Antibiotic MIC by E-test; conditions: Brevundimonas, 24 h, read-out: MIC threshold values for a given antibiotic
Protocol: as §1, §5, §6, §7

[15] = tested on: Pseudomonas sp. strain 3G; test: Antibiotic MIC by E-test; conditions: Pseudomonas, 24 h, read-out: MIC threshold values for a given antibiotic
Protocol: as §1, §5, §6, §7

[16] = tested on: Stenotrophomonas sp. strain 6L; test: Antibiotic MIC by E-test; conditions: Stenotrophomonas, 24 h, read-out: MIC threshold values for a given antibiotic
Protocol: as §1, §5, §6, §7

[17] = tested on: Arthrobacter sp. strain 1N; test: Antibiotic MIC by E-test; conditions: Arthrobacter; strain 1N, E-test, 24 h; read-out: MIC threshold values for a given antibiotic
Protocol: as §1, §5, §6, §7

[18] = tested on: Brevundimonas sp. strain 6N; test: Antibiotic MIC by E-test; conditions: Brevundimonas, 24 h, read-out: MIC threshold values for a given antibiotic
Protocol: as §1, §5, §6, §7

[19] = tested on: Achromobacter sp. strain 4P; test: Antibiotic MIC by E-test; conditions: Achromobacter; strain 4P, E-test, 24 h; read-out: MIC threshold values for a given antibiotic
Protocol: as §1, §5, §6, §7

[20] = tested on: Stenotrophomonas sp. strain 5L; test: Antibiotic MIC by E-test; conditions: Stenotrophomonas, 24 h, read-out: MIC threshold values for a given antibiotic
Protocol: as §1, §5, §6, §7

[21] = tested on: Brevundimonas sp. strain 2N; test: Antibiotic MIC by E-test; conditions: Brevundimonas, 24 h, read-out: MIC threshold values for a given antibiotic
Protocol: as §1, §5, §6, §7

[22] = tested on: Stenotrophomonas sp. strain 2L; test: Antibiotic MIC by E-test; conditions: Stenotrophomonas, 24 h, read-out: MIC threshold values for a given antibiotic
Protocol: as §1, §5, §6, §7

| Compound | Size of the growth inhibition zone [1] | Size of the growth inhibition zone [2] | Size of the growth inhibition zone [3] | Size of the growth inhibition zone [4] | Size of the growth inhibition zone [5] | Size of the growth inhibition zone ([6]; 24 h) | Size of the growth inhibition zone [7] | Size of the growth inhibition zone [8] | Size of the growth inhibition zone ([9]; 24 h) | MIC [12] | MIC [13] | MIC [14] | MIC [15] | MIC [16] | MIC [17] | MIC [18] | MIC [19] | MIC [20] | MIC [21] | MIC [22] | other results |
| --- | --- | --- | --- | --- | --- | --- | --- | --- | --- | --- | --- | --- | --- | --- | --- | --- | --- | --- | --- | --- | --- |
| [H]/N=C(/N)N[C@H]1[C@H](O)[C@@H](O)[C@H](O[C@@H]2O[C@@H](C)[C@](O)(C=O)[C@H]2O[C@@H]2O[C@@H](CO)[C@H](O)[C@@H](O)[C@@H]2NC)[C@@H](N/C(N)=N\[H])[C@@H]1O [S, streptomycin] | 0 mm | 0 mm | 0 mm | 10 mm | 0 mm | 12 mm | 0 mm | 0 mm | 8 mm | 384 µg/mL (≈ 660 µM) | ≥ 1020 µg/mL | 64 µg/mL (≈ 110 µM) | ≥ 1020 µg/mL | ≥ 1020 µg/mL | 48 µg/mL (≈ 82.5 µM) | ≥ 1020 µg/mL | 96 µg/mL (≈ 165 µM) | 64 µg/mL (≈ 110 µM) | 384 µg/mL (≈ 660 µM) | 64 µg/mL (≈ 110 µM) | Size of the growth inhibition zone ([6]; 48 h): 10 mm; Size of the growth inhibition zone [10]: 0 mm; Size of the growth inhibition zone ([11]; 24 h): 16 mm; Size of the growth inhibition zone ([11]; 48 h): 10 mm |
| Cc1cc(NS(=O)(=O)c2ccc(N)cc2)no1 [RL, sulfamethoxazole] | 0 mm | 0 mm | 0 mm | 0 mm | 0 mm | 0 mm | 0 mm | 0 mm | 0 mm | 12 µg/mL (≈ 47.4 µM) | ≥ 1020 µg/mL | ≥ 1020 µg/mL | ≥ 1020 µg/mL | 12 µg/mL (≈ 47.4 µM) | 12 µg/mL (≈ 47.4 µM) | ≥ 1020 µg/mL | 12 µg/mL (≈ 47.4 µM) | 8 µg/mL (≈ 31.6 µM) | 12 µg/mL (≈ 47.4 µM) | 6 µg/mL (≈ 23.7 µM) | Size of the growth inhibition zone [10]: 0 mm; Size of the growth inhibition zone ([11]; 24 h): 0 mm |
| CCn1cc(C(=O)O)c(=O)c2cc(F)c(N3CCNCC3)cc21 [NX, norfloxacin] |  |  |  |  |  |  |  |  |  | 128 µg/mL (≈ 401 µM) | > 256 µg/mL | 128 µg/mL (≈ 401 µM) | 192 µg/mL (≈ 601 µM) | 128 µg/mL (≈ 401 µM) | 96 µg/mL (≈ 301 µM) | 96 µg/mL (≈ 301 µM) | 256 µg/mL (≈ 802 µM) | 32 µg/mL (≈ 100 µM) | 256 µg/mL (≈ 802 µM) | 128 µg/mL (≈ 401 µM) |  |
| O=C(O)c1cn(C2CC2)c2cc(N3CCNCC3)c(F)cc2c1=O [CIP, ciprofloxacin] | 0 mm | 0 mm | 0 mm | 0 mm | 0 mm | 0 mm | 0 mm | 0 mm | 10 mm | ≥ 32 µg/mL | ≥ 32 µg/mL | ≥ 32 µg/mL | ≥ 32 µg/mL | ≥ 32 µg/mL | ≥ 32 µg/mL | ≥ 32 µg/mL | ≥ 32 µg/mL | 4 µg/mL (≈ 12.1 µM) | ≥ 32 µg/mL | ≥ 32 µg/mL | Size of the growth inhibition zone ([9]; 48 h): 0 mm; Size of the growth inhibition zone [10]: 0 mm; Size of the growth inhibition zone ([11]; 24 h): 0 mm |
